Holding throughout (format): protein-complex assay
Data set [1] has as its target T1, Protein farnesyltransferase (Homo sapiens) (UniProt P49354+P49356). In words: Ratio of Kcat to Km for farnesyltransferase.
Data set [2] deals with T1, Protein farnesyltransferase (Homo sapiens). In words: Catalytic constant against Farnesyltransferase.
Data set [3] relates to CC(C)=CCC/C(C)=C/CC/C(C)=C/COP(=O)(O)CP(=O)(O)O. The experiment in a line: (§1) Michaelis-Menten constant against Farnesyltransferase.
Data set [4] deals with CC(C)=CCC/C(C)=C/CC/C(C)=C/COP(=O)(O)OP(=O)(O)O. Described as §1.

`CC(C)=CCC/C(C)=C/CC/C(C)=C/COP(=O)(O)OP(=O)(O)O`: in data set [1], the Ratio stood at 2e+06 M⁻¹ s⁻¹. Besides, the K cat in data set [2] came to 0.09 s⁻¹.
As for `CC(C)=CCC/C(C)=C/CC/C(C)=C/COP(=O)(O)CP(=O)(O)O`, the Ratio in data set [1] is 300000 M⁻¹ s⁻¹. In data set [2], this compound had a K cat of 0.06 s⁻¹.
One may read the Km as the concentration of substrate that gives half-maximal velocity. Consider “Protein farnesyltransferase (Homo sapiens) (from UniProt P49354+P49356)”, for which the Km in data set [3] worked out at 0.18 µM; in data set [4], 0.04 µM.

The values above are taken from ChEMBL document CHEMBL1137881, “Synthesis of acyloxymethyl ester prodrugs of the transferable protein farnesyl transferase substrate farnesyl methylenediphosphonate” (Bioorg Med Chem Lett, 2004).
